Reference: ChEMBL document CHEMBL3232809, “Synthesis, antibiotic activity and structure-activity relationship study of some 3-enaminetetramic acids” (2014)
In brackets after ≈: the same amount, converted by molar mass.

How the values were obtained:
Assay type in all cases: functional
[1] = system: Staphylococcus aureus; assay: Antimicrobial activity against methicillin-sensitive Staphylococcus aureus ATCC 13709
[2] = system: Haemophilus influenzae; assay: Antimicrobial activity against LS2 Efflux knock-out Haemophilus influenzae
[3] = system: Staphylococcus aureus; assay: Antimicrobial activity against methicillin-resistant Staphylococcus aureus
[4] = system: Streptococcus pneumoniae; assay: Antimicrobial activity against penicillin- and erythromycin-resistant Streptococcus pneumoniae
[5] = system: Escherichia coli; assay: Antimicrobial activity against Escherichia coli ATCC 25922
[6] = system: Enterococcus faecium; assay: Antimicrobial activity against vancomycin-resistant Enterococcus faecium
[7] = system: Enterococcus faecalis; assay: Antimicrobial activity against vancomycin-susceptible Enterococcus faecalis ATCC 29212
[8] = system: Streptococcus pneumoniae; assay: Antimicrobial activity against erythromycin-susceptible Streptococcus pneumoniae ATCC 49619
[9] = system: Haemophilus influenzae; assay: Antimicrobial activity against Haemophilus influenzae ATCC 31517 MMSA
[10] = system: Streptococcus pneumoniae; assay: Antimicrobial activity against penicillin- and erythromycin-resistant Streptococcus pneumoniae in presence of 2.5% horse blood
[11] = system: Pseudomonas aeruginosa; assay: Antimicrobial activity against Pseudomonas aeruginosa ATCC 27853
[12] = system: Staphylococcus aureus; assay: Antimicrobial activity against vancomycin-susceptible Staphylococcus aureus ATCC 25923
[13] = system: Escherichia coli; assay: Antimicrobial activity against Escherichia coli 49
[14] = system: Staphylococcus aureus; assay: Antimicrobial activity against Staphylococcus aureus Oxford
[15] = system: Escherichia coli; assay: Antimicrobial activity against Escherichia coli 50

SMILES | MIC [1] [µg/mL] | MIC [2] [µg/mL] | MIC [3] [µg/mL] | MIC [4] [µg/mL] | MIC [5] [µg/mL] | MIC [6] [µg/mL] | MIC [7] [µg/mL] | MIC [8] [µg/mL] | MIC [9] [µg/mL] | MIC [10] [µg/mL] | MIC [11] [µg/mL] | MIC [12] [µg/mL] | MIC [13] [µg/mL] | MIC [14] [µg/mL] | MIC [15] [µg/mL]
CCCCCC/C(=C1/C(=O)N2[C@@H](C(C)(C)C)OC[C@]2(C(=O)OC)C1=O)N1CCCCC1 | > 32 | > 32 | > 32 | > 32 | > 32 | > 32 | > 32 | > 32 | > 32 | > 32 | > 32 | > 32 | > 32 | > 32 | > 32
CCOC(=O)[C@]12CO[C@H](C(C)(C)C)N1C(=O)/C(=C(/CC13CC4CC(C)(CC(C)(C4)C1)C3)NC(C)CCCN(CC)CC)C2=O (stereo not given in full) | > 32 | > 32 | > 32 | > 32 | > 32 | > 32 | > 32 | > 32 | > 32 | > 32 | > 32 | > 32 | > 32 | > 32 | > 32
CCOC(=O)[C@]12CO[C@H](C(C)(C)C)N1C(=O)/C(=C(/CC13CC4CC(CC(C4)C1)C3)NCC(C)(C)CN(C)C)C2=O | > 32 | > 32 | > 32 | > 32 | > 32 | > 32 | > 32 | > 32 | > 32 | > 32 | > 32 | > 32 | > 32 | > 32 | > 32
COC(=O)[C@]12CO[C@H](C(C)(C)C)N1C(=O)/C(=C(/CCCOc1ccccc1)NCCCOC(C)C)C2=O | > 32 | > 32 | > 32 | > 32 | > 32 | > 32 | > 32 | > 32 | > 32 | > 32 | > 32 | > 32 | > 32 | > 32 | > 32
COC(=O)[C@]12CO[C@H](C(C)(C)C)N1C(=O)/C(=C(/CCCOc1ccccc1)NCCN1CCCCC1)C2=O | > 32 | > 32 | > 32 | > 32 | > 32 | > 32 | > 32 | > 32 | > 32 | > 32 | > 32 | > 32 | > 32 | > 32 | > 32
C/C(NC12CC3CC(CC(C3)C1)C2)=C1\C(=O)N2[C@H](C(C)(C)C)OC[C@@]2(C)C1=O (mixture of isomers) | > 64 | 16 | > 64 | > 64 | > 32 | > 64 | > 64 | > 64 | > 64 | > 64 | > 32 | > 64 | > 32 | > 64 | > 32
C/C(NCCOc1ccccc1)=C1\C(=O)N2[C@H](C(C)(C)C)OC[C@@]2(C)C1=O (racemic) | 8 (≈ 21.5 µM) | < 0.06 | 8 (≈ 21.5 µM) | 1 (≈ 2.68 µM) | > 32 | 1 (≈ 2.68 µM) | 4 (≈ 10.7 µM) | 1 (≈ 2.68 µM) | 4 (≈ 10.7 µM) | 2 | > 32 | 4 (≈ 10.7 µM) | > 32 | 8 (≈ 21.5 µM) | > 32
C/C(Nc1ccccc1)=C1\C(=O)N2[C@H](C(C)(C)C)OC[C@@]2(C)C1=O (racemic) | 64 (≈ 195 µM) | 8 (≈ 24.4 µM) | 64 (≈ 195 µM) | 8 (≈ 24.4 µM) | > 32 | 32 (≈ 97.4 µM) | 64 (≈ 195 µM) | 8 (≈ 24.4 µM) | > 64 | 8 | > 32 | 64 (≈ 195 µM) | > 32 | 64 (≈ 195 µM) | > 32
